Where a name gives a salt, the structure may show the parent alone.
Row | SMILES | melting point
1 | COc1ccc(Cc2nc3c(N)nc4ccccc4c3n2CCCCNC(=O)c2ccc3ccccc3n2)cc1 [Example 61, N^2-{4-[4-Amino-2-(4-methoxybenzyl)-1H-imidazo [4,5-c]quinolin-1-yl]butyl}-2-quinolinecarboxamide] | 95.1 to 97.4 °C
2 | CCCCc1ccc(C(=O)NCCCCn2c(CCOC)nc3c(N)nc4ccccc4c32)nc1 [Example 58, N^2-{4-[4-Amino-2-(2-methoxyethyl)-1H-imidazo[4,5-c]quinolin-1-yl]butyl}-5-butyl-2-pyridinecarboxamide] | 54.9 to 55.2 °C
3 | Nc1nc2ccccc2c2c1ncn2CCCCNC(=O)c1ccnc2ccccc12 [Example 49, N^4-[4-(4-Amino-1H-imidazo[4,5-c]quinolin-1-yl)butyl]-4-quinolinecarboxamide] | 214.5 to 215.2 °C
4 | Nc1nc2ccccc2c2c1ncn2CCCCCNC(=O)c1ccccc1 (as salt: hydrochloride) [Example 10, N^1-[5-(4-Amino-1H-imidazo[4,5-c]quinolin-1-yl)pentyl]benzamide Hydrochloride] | 217 to 219 °C
5 | Nc1nc2ccccc2c2c1ncn2CCCNC(=O)c1ccccc1 (as salt: hydrochloride) [Example 11, N^1-[3-(4-Amino-1H-imidazo[4,5-c]quinolin-1-yl)propyl]benzamide Hydrochloride] | 265 to 270 °C
6 | COCCc1nc2c(N)nc3ccccc3c2n1CCCCNC(=O)c1c[nH]c2ccccc12 [Example 59, N^3-{4-[4-Amino-2-(2-methoxyethyl)-1H-imidazo[4,5-c]quinolin-1-yl]butyl}-3-indolecarboxamide] | 225.5 to 227.4 °C
7 | Nc1nc2ccccc2c2c1ncn2CCCCNC(=O)c1cn(Cc2ccccc2)c2ccccc12 [Example 42, N^3-[4-(4-Amino-1H-imidazo[4,5-c]quinolin-1-yl)butyl]-1-benzyl-1H-3-indolecarboxamide] | 139 °C (dec.)
8 | COCCc1nc2c(N)nc3ccccc3c2n1CCCCNC(=O)c1nccc2ccccc12 [Example 57, N^1-{4-[4-Amino-2-(2-methoxyethyl)-1H-imidazo[4,5-c]quinolin-1-yl]butyl}-1-isoquinolinecarboxamide] | 61 to 63 °C
9 | Nc1nc2ccccc2c2c1ncn2CCCCNC(=O)c1cccnc1 [Example 47, N^3-[4-(4-Amino-1H-imidazo[4,5-c]quinolin-1-yl)butyl]nicotinamide] | 188.6 to 189.5 °C
10 | COCCc1nc2c(N)nc3ccccc3c2n1CCCCNC(=O)c1ccc2ccccc2n1 [Example 55, N^2-{4-[4-Amino-2-(2-methoxyethyl)-1H-imidazo[4,5-c]quinolin-1-yl]butyl}-2-quinolinecarboxamide] | 78.1 to 79.9 °C
11 | N#Cc1ccc(C(=O)NCCCCn2cnc3c(N)nc4ccccc4c32)cn1 [Example 52, N^3-[4-(4-Amino-1H-imidazo[4,5-c]quinolin-1-yl)butyl]-6-cyanonicotinamide] | 125 to 129 °C
12 | COCCc1nc2c(N)nc3ccccc3c2n1CCCCNC(=O)c1cc(-c2ccccc2)nc2ccccc12 [Example 50, N^4-[4-(4-Amino-2-(2-methoxyethyl)-1H-imidazo[4,5-c]quinolin-1-yl)butyl]-2-phenyl-4-quinolinecarboxamide] | 118 °C (dec.)
13 | COCCc1nc2c(N)nc3ccccc3c2n1CCCCNC(=O)c1ccc(-n2cccc2)cc1 [Example 60, N^1-{4-[4-Amino-2-(2-methoxyethyl)-1H-imidazo[4,5-c]quinolin-1-yl]butyl}-4-(1-pyrrolyl)benzamide] | 173 to 174.9 °C
14 | CC(C(=O)NCCCCn1cnc2c(N)nc3ccccc3c21)c1ccc(-c2ccccc2)c(F)c1 (stereo not shown) [Example 56, N^1-[4-(4-Amino-1H-imidazo[4,5-c]quinolin-1-yl)butyl]-2-(2-fluoro-4-biphenylyl)propanamide] | 76.1 to 79.9 °C
15 | Nc1nc2ccccc2c2c1ncn2CCCCNC(=O)c1ccc(OCC(F)(F)F)nc1 [Example 54, N^3-[4-(4-Amino-1H-imidazo[4,5-c]quinolin-1-yl)butyl]-6-(2,2,2-trifluoroethoxy)nicotinamide] | 192 to 194 °C (dec.)
16 | Nc1nc2ccccc2c2c1ncn2CCCCNC(=O)c1ccc(Cl)nc1 [Example 53, N^3-[4-(4-Amino-1H-imidazo[4,5-c]quinolin-1-yl)butyl]-6-chloronicotinamide] | 144 to 148 °C (dec.)

Next, values leading:

Row | melting point | SMILES
17 | 90.5 to 91.5 °C | Nc1nc2ccccc2c2c1ncn2CCCCNC(=O)c1ccc(Oc2ccccc2)cc1 [Example 64, N^1-[4-(4-Amino-1H-imidazo[4,5-c]quinolin-1-yl)butyl]-4-phenoxybenzamide]
18 | 221.8 to 223.3 °C | CCCC(=O)NCCCn1c(C)nc2c(N)nc3ccccc3c21 [Example 208, N-[3-(4-amino-2-methyl-1H-imidazo[4,5-c]quinolin-1-yl)propyl]butanamide]
19 | 191.6 to 192.6 °C | Cc1nc2c(N)nc3ccccc3c2n1CCCCNC(=O)C1CCCCC1 [Example 198, N-[4-(4-amino-2-methyl-1H-imidazo[4,5-c]quinolin-1-yl)butyl]cyclohexanecarboxamide]
20 | 84.5 to 86.1 °C | Nc1nc2ccccc2c2c1nc(-c1ccccc1)n2CCCCNC(=O)c1cccnc1 [Example 66, N^3-[4-(4-Amino-2-phenyl-1H-imidazo[4,5-c]quinolin-1-yl)butyl]nicotinamide]
21 | 169.4 to 170.5 °C | CCCC(=O)NCCCCn1c(C)nc2c(N)nc3ccccc3c21 [Example 203, N-[4-(4-amino-2-methyl-1H-imidazo[4,5-c]quinolin-1-yl)butyl]butanamide]
22 | 186.2 to 186.7 °C | Nc1nc2ccccc2c2c1nc(CCCOc1ccccc1)n2CCCNC(=O)c1ccc(Br)cc1 [Example 193, N-{3-[4-amino-2-(3-phenoxypropyl)-1H-imidazo[4,5-c]quinolin-1-yl]propyl}-4-bromobenzamide]
23 | 167.8 to 169.6 °C | COCCc1nc2c(N)nc3c(c2n1CCCNC(=O)c1ccccc1)CCCC3 [Example 195, N-{3-[4-amino-2-(2-methoxyethyl)-6,7,8,9-tetrahydro-1H-imidazo[4,5-c]quinolin-1-yl]propyl}benzamide]
24 | 178.6 to 179.5 °C | CCc1nc2c(N)nc3ccccc3c2n1CCCCNC(=O)C1CCCC1 [Example 197, N-[4-(4-amino-2-ethyl-1H-imidazo[4,5-c]quinolin-1-yl)butyl]cyclopentanecarboxamide]
25 | 168.6 to 169.8 °C | Cc1nc2c(N)nc3ccccc3c2n1CCCCNC(=O)C1CCCC1 [Example 201, N-[4-(4-amino-2-methyl-1H-imidazo[4,5-c]quinolin-1-yl)butyl]cyclopentanecarboxamide]
26 | 155.4 to 156.3 °C | CCc1nc2c(N)nc3ccccc3c2n1CCCCNC(=O)C(C)C [Example 199, N-[4-(4-amino-2-ethyl-1H-imidazo[4,5-c]quinolin-1-yl)butyl]-2-methylpropanamide]
27 | 239 to 240.1 °C | Cc1nc2c(N)nc3ccccc3c2n1CCCNC(=O)C(C)C [Example 207, N-[3-(4-amino-2-methyl-1H-imidazo[4,5-c]quinolin-1-yl)propyl]-2-methylpropanamide]
28 | 234.4 to 235.4 °C | Cc1nc2c(N)nc3ccccc3c2n1CCCNC(=O)C1CCCCC1 [Example 205, N-[3-(4-amino-2-methyl-1H-imidazo[4,5-c]quinolin-1-yl)propyl]cyclohexanecarboxamide]

Source: patent US6756382B2, “Amide substituted imidazoquinolines” (3M Innovative Properties Company, priority 1999, dated 2004)
